Data reported in US7396837B2, “Antitumoral analogs of lamellarins” (Pharma Mar, S.A.U., priority 2002, dated 2008).

Columns and labels:
Type in all cases: cell-based
[1] = system: LoVo; experiment: SRB colorimetric cell growth inhibition assay, LoVo; details: Homo sapiens
Outline: (§1)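 Triplicate-well SRB colorimetry following continuous sample exposure of human tumour cells; reported parameters are GI, TGI for cytostatic effect, and LC for cytotoxic effect.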

[2] = system: DU-145; experiment: SRB colorimetric cell growth inhibition assay, DU-145; details: Homo sapiens
Outline: as §1

[3] = system: HT-29; experiment: SRB colorimetric cell growth inhibition assay, HT-29; details: Homo sapiens
Outline: as §1

[4] = system: A-549; experiment: SRB colorimetric cell growth inhibition assay, A-549; details: Homo sapiens, A549, A-549
Outline: as §1

[5] = system: IGROV-ET; experiment: SRB colorimetric cell growth inhibition assay, IGROV-ET (ET-743 resistant); details: Homo sapiens, IGROV-ET
Outline: as §1

[6] = system: H-MEC-1; experiment: SRB colorimetric cell growth inhibition assay, H-MEC-1; details: Homo sapiens, HMEC-1, H-MEC-1
Outline: (§2)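 Growth inhibition (GI), total growth inhibition (TGI, cytostatic) and lethal concentration (LC, cytotoxic) come from an SRB-based colorimetric measure of growth and viability. Data are triplicate-well means ± SD.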

[7] = as above; details: human; H-MEC-1; cell killing (cytotoxic effect); read-out: LC50 H-MEC-1
Outline: as §2

[8] = system: K-562; experiment: SRB colorimetric cell growth inhibition assay, K-562; details: Homo sapiens, K562, K-562
Outline: as §1

[9] = system: LoVo-Dox; experiment: SRB colorimetric cell growth inhibition assay, LoVo-Dox (MDR); details: Homo sapiens, LOVO-DOX
Outline: as §1

[10] = system: IGROV; experiment: SRB colorimetric cell growth inhibition assay, IGROV; details: Homo sapiens, IGROV
Outline: as §1

[11] = system: LNCaP; experiment: SRB colorimetric cell growth inhibition assay, LNCaP; details: Homo sapiens, LNCaP, LN-caP
Outline: as §1

[12] = system: PANC-1; experiment: SRB colorimetric cell growth inhibition assay, PANC-1; details: Homo sapiens
Outline: as §1

[13] = system: SK-MEL-28; experiment: SRB colorimetric cell growth inhibition assay, SK-MEL-28; details: Homo sapiens, SK-MEL-28, MEL-28
Outline: as §1

[14] = system: SKOV-3; experiment: SRB colorimetric cell growth inhibition assay, SKOV-3; details: Homo sapiens
Excerpt: A colorimetric type of assay, using sulforhodamine B (SRB) reaction has been adapted for a quantitative measurement of cell growth and viability (following the technique described by P. A. Skehan, et al., J. Natl. Cancer Inst. 1990, 82, 1107-1112).
This form of assay employs 96 well cell culture microplates of 9 mm diameter (T. Mosmann et al., J. of Immunological Methods 1983, 65, 55-63; G. T. Faircloth et al., J. of Tissue and Culture Methods 1988, 11, 201-205).
Most of the cell lines are obtained from American Type Culture Collection (ATCC) derived from different human cancer types.
The values for mean +/− SD of data from triplicate wells are calculated. Some parameters for cellular responses can be calculated: GI=growth inhibition, TGI=total growth inhibition (cytostatic effect) and LC=cell killing (cytotoxic effect).

[15] = system: SK-BR-3; experiment: SRB colorimetric cell growth inhibition assay, SK-BR-3; details: Homo sapiens
Outline: as §1

COc1cc(-c2c3n(c4c(=O)oc5cc(OC(=O)[C@H](Cc6c[nH]c7ccccc67)NC(=O)OC(C)(C)C)c(OC)cc5c24)CCc2cc(OC(=O)[C@H](Cc4c[nH]c5ccccc45)NC(=O)OC(C)(C)C)c(OC)cc2-3)ccc1OC(=O)[C@H](Cc1c[nH]c2ccccc12)NC(=O)OC(C)(C)C [Compound 29] gave a CC50 ([1]; LoVo, LC=cell killing (cytotoxic effect), read-out: LC50 LOVO) of 7.35 µM, a GI50 ([1]; LOVO, GI=growth inhibition, read-out: GI50 LOVO) of 2.91 µM and an IC (TGI) ([1]; LOVO, TGI=total growth inhibition (cytostatic effect), read-out: TGI LOVO) of 7.35 µM. For the same molecule, the CC50 ([2]; DU-145, DU-145, cell killing (cytotoxic effect), read-out: LC50 DU-145) was 3.9 µM, the GI50 ([2]; DU-145, GI=growth inhibition, read-out: GI50 DU-145) was 0.198 µM and the IC (TGI) ([2]; DU-145, total growth inhibition (cytostatic effect), read-out: TGI DU-145) was 0.44 µM. It also gave a CC50 ([3]; HT-29, HT-29, LC=cell killing (cytotoxic effect), read-out: LC50 HT-29) of 7.35 µM, a GI50 ([3]; HT-29, GI=growth inhibition, read-out: GI50 HT-29) of 1.84 µM and an IC (TGI) ([3]; HT-29, TGI=total growth inhibition (cytostatic effect), read-out: TGI HT-29) of 5.08 µM. It also gave a GI50 ([4]; GI=growth inhibition, read-out: GI50 A-549) of 1.73 µM, a CC50 ([4]; LC=cell killing (cytotoxic effect), read-out: LC50 A-549) of 7.35 µM and an IC (TGI) ([4]; TGI=total growth inhibition (cytostatic effect), read-out: TGI A-549) of 3.63 µM. The GI50 ([5]; GI=growth inhibition, read-out: GI50 IGROV-ET) was 5.65 µM, the CC50 ([5]; cell killing (cytotoxic effect), read-out: LC50 IGROV-ET) was 7.35 µM and the IC (TGI) ([5]; total growth inhibition (cytostatic effect), read-out: TGI IGROV-ET) was 7.35 µM. It also gave a GI50 ([6]; GI=growth inhibition, read-out: GI50 H-MEC-1) of 0.0242 µM, an IC (TGI) ([6]; total growth inhibition (cytostatic effect), read-out: TGI H-MEC-1) of 0.0526 µM and an LC50 (concentration giving 50% net cell killing) [7] of 0.29 µM. The GI50 ([8]; GI=growth inhibition, read-out: GI50 K-562) was 0.481 µM, the CC50 ([8]; LC=cell killing (cytotoxic effect), read-out: LC50 K-562) was 7.35 µM and the IC (TGI) ([8]; TGI=total growth inhibition (cytostatic effect), read-out: TGI K-562) was 3.46 µM. It also gave a GI50 ([9]; GI=growth inhibition, read-out: GI50 LOVO-DOX) of 7.35 µM, a CC50 ([9]; LC=cell killing (cytotoxic effect), read-out: LC50 LOVO-DOX) of 7.35 µM and an IC (TGI) ([9]; TGI=total growth inhibition (cytostatic effect), read-out: TGI LOVO-DOX) of 7.35 µM. It also gave a CC50 ([10]; cell killing (cytotoxic effect), read-out: LC50 IGROV) of 7.35 µM, a GI50 ([10]; GI=growth inhibition, read-out: GI50 IGROV) of 0.367 µM and an IC (TGI) ([10]; total growth inhibition (cytostatic effect), read-out: TGI IGROV) of 1.66 µM. It also gave a GI50 ([11]; GI=growth inhibition, read-out: GI50 LN-caP) of 0.0704 µM, a CC50 ([11]; cell killing (cytotoxic effect), read-out: LC50 LN-caP) of 0.396 µM and an IC (TGI) ([11]; total growth inhibition (cytostatic effect), read-out: TGI LN-caP) of 0.169 µM. For the same molecule, the CC50 ([12]; PANC-1, PANC-1, LC=cell killing (cytotoxic effect), read-out: LC50 PANC-1) was 7.35 µM, the IC (TGI) ([12]; PANC-1, PANC-1, TGI=total growth inhibition (cytostatic effect), read-out: TGI PANC-1) was 4.23 µM and the GI50 ([12]; PANC-1, GI=growth inhibition, read-out: GI50 PANC-1) was 0.978 µM. For the same molecule, the GI50 ([13]; GI=growth inhibition, read-out: GI50 MEL-28) was 1.55 µM, the CC50 ([13]; cell killing (cytotoxic effect), read-out: LC50 MEL-28) was 6.45 µM and the IC (TGI) ([13]; total growth inhibition (cytostatic effect), read-out: TGI MEL-28) was 3.17 µM. For the same molecule, the GI50 ([14]; SK-OV-3, SKOV-3, GI=growth inhibition, read-out: GI50 SKOV-3) was 1.79 µM, the LC50 (concentration causing 50% net cell killing) ([14]; SK-OV-3, SKOV-3, cell killing (cytotoxic effect), read-out: LC50 SKOV-3) was 7.35 µM and the IC (TGI) ([14]; SK-OV-3, SKOV-3, total growth inhibition (cytostatic effect), read-out: TGI SKOV-3) was 3.9 µM. It also gave a CC50 ([15]; SK-BR-3, SK-BR-3, cell killing (cytotoxic effect), read-out: LC50 SK-BR-3) of 7.03 µM, a GI50 ([15]; SK-BR-3, GI=growth inhibition, read-out: GI50 SK-BR-3) of 0.242 µM and an IC (TGI) ([15]; SK-BR-3, total growth inhibition (cytostatic effect), read-out: TGI SK-BR-3) of 0.525 µM.
